# Test results taken from ChEMBL document CHEMBL1201862, “PubChem BioAssay data set” (2004).
#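 1) Cells in 96-well plates. 2) Compound, 48 h, 5 concentrations. 3) Linear interpolation between surrounding doses. 4) Unreached endpoint = highest concentration. Abbreviation: GI50, concentration required for 50% inhibition of growth.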 Calls of active or inactive are those of the source. No stated cut-off is given here; in the data, active = GI50 up to about 1.1 µM and inactive = higher.
# Legend:
# Experiment in all cases: NCI tumour cell line growth inhibition, 48 h
# 786-0 = tested on: 786-0
# CAKI-1 = tested on: CAKI-1
# CCRF-CEM = tested on: CCRF-CEM
# HT-29 = tested on: HT-29
# K562 = tested on: K562
# KM12 = tested on: KM12
# RXF 393 = tested on: RXF 393
# SK-MEL-28 = tested on: SK-MEL-28
# SK-MEL-2 = tested on: SK-MEL-2
# SK-OV-3 = tested on: SK-OV-3
# SW-620 = tested on: SW-620
# UACC-257 = tested on: UACC-257
# UACC-62 = tested on: UACC-62
# ACHN = tested on: ACHN
# HL-60 = tested on: HL-60
# HOP-92 = tested on: HOP-92
# Malme-3M = tested on: Malme-3M
# RPMI-8226 = tested on: RPMI-8226
# SF-295 = tested on: SF-295
# HCC 2998 = tested on: HCC 2998
Structure (SMILES),GI50 (786-0),GI50 (CAKI-1),GI50 (CCRF-CEM),GI50 (HT-29),GI50 (K562),GI50 (KM12),GI50 (RXF 393),GI50 (SK-MEL-28),GI50 (SK-MEL-2),GI50 (SK-OV-3),GI50 (SW-620),GI50 (UACC-257),GI50 (UACC-62),GI50 (ACHN),GI50 (HL-60),GI50 (HOP-92),GI50 (Malme-3M),GI50 (RPMI-8226),GI50 (SF-295),GI50 (HCC 2998)
COc1cc([C@@H]2c3cc4c(cc3[C@@H](NCCNCCO)[C@H]3COC(=O)[C@H]23)OCO4)cc(OC)c1O,0.762 µM (active),2.83 µM (inactive),0.0861 µM (active),2 µM (inactive),1.04 µM (active),3.72 µM (inactive),2.02 µM (inactive),2.67 µM (inactive),2.78 µM (inactive),2.33 µM (inactive),2.84 µM (inactive),5.02 µM (inactive),0.601 µM (active),–,–,–,–,–,–,–
O=C(O)c1cc2ccccc2c(/N=N/c2ccccc2)c1O,33.5 µM (inactive),35.6 µM (inactive),38.5 µM (inactive),11.8 µM (inactive),36.8 µM (inactive),14.9 µM (inactive),34.9 µM (inactive),29.8 µM (inactive),> 10 µM (inactive),41.9 µM (inactive),23.8 µM (inactive),15.6 µM (inactive),17.4 µM (inactive),26.2 µM (inactive),10 µM (inactive),55.3 µM (inactive),13.1 µM (inactive),21.6 µM (inactive),12.4 µM (inactive),–
Cc1cc2c(=O)cc(-c3ccc(F)cc3)oc2c(C(=O)O)c1C,> 100 µM (inactive),> 100 µM (inactive),> 100 µM (inactive),> 100 µM (inactive),> 100 µM (inactive),> 100 µM (inactive),> 100 µM (inactive),> 100 µM (inactive),> 100 µM (inactive),> 100 µM (inactive),> 100 µM (inactive),> 100 µM (inactive),> 100 µM (inactive),> 100 µM (inactive),–,–,> 100 µM (inactive),> 100 µM (inactive),> 100 µM (inactive),–
Cc1ccc(O)c(C2=CC(c3cccc(Br)c3)SC(=N)N2)c1 (stereo not given),23.7 µM (inactive),28.4 µM (inactive),25.6 µM (inactive),33.7 µM (inactive),24.5 µM (inactive),27 µM (inactive),19.5 µM (inactive),–,18.2 µM (inactive),28.8 µM (inactive),28.4 µM (inactive),20.1 µM (inactive),17.1 µM (inactive),23.3 µM (inactive),29 µM (inactive),19 µM (inactive),25.2 µM (inactive),18 µM (inactive),21.2 µM (inactive),–
O=C(NCc1ccc(Cl)cc1)c1cc2sccc2nc1C(F)(F)F,18.2 µM (inactive),31.7 µM (inactive),> 100 µM (inactive),> 100 µM (inactive),> 100 µM (inactive),87.1 µM (inactive),24 µM (inactive),55.7 µM (inactive),50 µM (inactive),34 µM (inactive),54.2 µM (inactive),69 µM (inactive),35.2 µM (inactive),20.6 µM (inactive),–,37.7 µM (inactive),42.3 µM (inactive),> 100 µM (inactive),28 µM (inactive),–
Cc1ccc(-c2nnc(-c3nn(-c4ccccc4)c4nc5ccccc5nc34)o2)cc1,9.93 µM (inactive),11.7 µM (inactive),3.59 µM (inactive),41.7 µM (inactive),11.4 µM (inactive),17.8 µM (inactive),6.05 µM (inactive),26.6 µM (inactive),16 µM (inactive),10.8 µM (inactive),35.6 µM (inactive),35.9 µM (inactive),14.2 µM (inactive),14.4 µM (inactive),11 µM (inactive),7.52 µM (inactive),–,8.38 µM (inactive),15.6 µM (inactive),–
COc1ccc2c(ccc3c(COC(=O)NC(C)C)c(COC(=O)NC(C)C)n(C)c32)c1,3.26 µM (inactive),2.11 µM (inactive),3.21 µM (inactive),10.8 µM (inactive),6.08 µM (inactive),11.5 µM (inactive),9.02 µM (inactive),–,17.1 µM (inactive),16.7 µM (inactive),11.5 µM (inactive),12.7 µM (inactive),4.42 µM (inactive),1.81 µM (inactive),–,11.2 µM (inactive),2.54 µM (inactive),10 µM (inactive),8.79 µM (inactive),–
CCCCOC(=O)C(NC(C(=O)OCCCC)c1cc(C(C)(C)C)c(O)c(C(C)(C)C)c1)c1cc(C(C)(C)C)c(O)c(C(C)(C)C)c1 (stereo not given),> 100 µM (inactive),> 100 µM (inactive),73.8 µM (inactive),76 µM (inactive),56.9 µM (inactive),> 100 µM (inactive),–,> 100 µM (inactive),> 100 µM (inactive),> 100 µM (inactive),> 100 µM (inactive),> 100 µM (inactive),> 100 µM (inactive),> 100 µM (inactive),> 100 µM (inactive),75 µM (inactive),> 100 µM (inactive),31.5 µM (inactive),> 100 µM (inactive),–
COC(=O)Nc1nc2cc(NS(=O)(=O)c3ccc(F)cc3)ccc2[nH]1,40 µM (inactive),23.6 µM (inactive),13.7 µM (inactive),7.73 µM (inactive),4.65 µM (inactive),4.43 µM (inactive),18.5 µM (inactive),9.75 µM (inactive),31 µM (inactive),13.1 µM (inactive),6.27 µM (inactive),–,9.23 µM (inactive),42.2 µM (inactive),4.03 µM (inactive),10.5 µM (inactive),7.5 µM (inactive),15 µM (inactive),14.5 µM (inactive),–
CC1(C)CC(=O)C/C(=N/c2ccc([N+](=O)[O-])cc2)C1,> 100 µM (inactive),–,20.4 µM (inactive),87.3 µM (inactive),35.6 µM (inactive),> 100 µM (inactive),47.4 µM (inactive),> 100 µM (inactive),> 100 µM (inactive),> 100 µM (inactive),–,> 100 µM (inactive),> 100 µM (inactive),> 100 µM (inactive),80.5 µM (inactive),–,> 100 µM (inactive),53.5 µM (inactive),> 100 µM (inactive),> 100 µM (inactive)
CN1/C(=C/C=C/C=C/C=C2C(=O)c3ccccc3C2=O)C(C)(C)c2ccccc21,> 100 µM (inactive),44 µM (inactive),> 100 µM (inactive),> 100 µM (inactive),13.3 µM (inactive),76.9 µM (inactive),24.2 µM (inactive),–,20.3 µM (inactive),39.4 µM (inactive),> 100 µM (inactive),17.5 µM (inactive),17.7 µM (inactive),25.8 µM (inactive),36.6 µM (inactive),15.7 µM (inactive),29.4 µM (inactive),6.55 µM (inactive),35.5 µM (inactive),–
CC(CCCCNC(=O)OC(C)(C)C)NC(=O)NC(C)CCCCNC(=O)OC(C)(C)C (stereo not given),> 100 µM (inactive),> 100 µM (inactive),6.21 µM (inactive),> 100 µM (inactive),83.2 µM (inactive),> 100 µM (inactive),> 100 µM (inactive),> 100 µM (inactive),–,> 100 µM (inactive),> 100 µM (inactive),43.5 µM (inactive),73.6 µM (inactive),> 100 µM (inactive),39 µM (inactive),> 100 µM (inactive),> 100 µM (inactive),–,63.5 µM (inactive),–
CC(=O)NC1C(OC(C)C(=O)NC(C(=O)NC(CCC(=O)NCCCNC2c3ccccc3Nc3cccc([N+](=O)[O-])c32)C(N)=O)C(C)C)C(O)C(CO)OC1(C)OCc1ccccc1 (stereo not given),0.536 µM (active),1.33 µM (inactive),1.02 µM (active),0.152 µM (active),0.363 µM (active),1.77 µM (inactive),0.36 µM (active),–,1.22 µM (inactive),1.67 µM (inactive),0.291 µM (active),2.33 µM (inactive),0.577 µM (active),0.621 µM (active),–,–,1.12 µM (inactive),0.353 µM (active),1.62 µM (inactive),0.671 µM (active)
CCSC1=N/C(=C\c2ccco2)C(Nc2ccc(C)cc2)=N1,> 100 µM (inactive),–,> 100 µM (inactive),> 100 µM (inactive),> 100 µM (inactive),> 100 µM (inactive),–,> 100 µM (inactive),> 100 µM (inactive),> 100 µM (inactive),> 100 µM (inactive),–,> 100 µM (inactive),> 100 µM (inactive),–,> 100 µM (inactive),52 µM (inactive),> 100 µM (inactive),> 100 µM (inactive),–
CSCCC(C(=O)O)N(C)C (stereo not given),> 100 µM (inactive),> 100 µM (inactive),> 100 µM (inactive),> 100 µM (inactive),41.9 µM (inactive),> 100 µM (inactive),> 100 µM (inactive),> 100 µM (inactive),> 100 µM (inactive),> 100 µM (inactive),> 100 µM (inactive),> 100 µM (inactive),> 100 µM (inactive),> 100 µM (inactive),> 100 µM (inactive),> 100 µM (inactive),> 100 µM (inactive),> 100 µM (inactive),> 100 µM (inactive),–
C[C@@]12CCCC(=O)N1[C@@H](CO)C(c1ccccc1)O2 (stereo not given in full),> 100 µM (inactive),> 100 µM (inactive),–,> 100 µM (inactive),> 100 µM (inactive),> 100 µM (inactive),> 100 µM (inactive),> 100 µM (inactive),> 100 µM (inactive),–,> 100 µM (inactive),> 100 µM (inactive),> 100 µM (inactive),> 100 µM (inactive),–,> 100 µM (inactive),> 100 µM (inactive),> 100 µM (inactive),> 100 µM (inactive),–
